Source: patent publication US9198433B2, “Substituted benzene fungicides” (E I DU PONT DE NEMOURS AND COMPANY, priority 2007, dated 2015)
Like-named read-outs stand apart in the source and are kept apart here. Marks after values point to notes of the source that are not given here.

Columns and labels:
Type in all cases: in vivo
Septoria tritici = assay: Test D: wheat leaf blotch, preventive spray on wheat seedlings, disease rating
Outline: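 Preventive test: one day after run-off spraying (200 ppm, equal to 500 g/ha, unless marked 40 or 50 ppm; acetone/water plus 250 ppm Trem 014), seedlings received S. tritici spore inoculum. Disease scored after 48 h at 24 °C in saturated air and 19 further days at 20 °C.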

Septoria nodorum = assay: Test C: wheat glume blotch, preventive spray on wheat seedlings, disease rating
Outline: (§1)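 Applied as preventive foliar sprays to wheat seedlings, to run-off. Formulation: acetone (3% of final volume) predissolution, then acetone/water 50/50 with surfactant at 250 ppm. Rates were 200 ppm except flagged values at 40 or 50 ppm.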

Alternaria solani = assay: Test H: tomato early blight, preventive spray on tomato seedlings, disease rating
Outline: (§2)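 Disease ratings follow a preventive run-off spray of tomato seedlings. Compounds were first dissolved in acetone (3% of volume), then suspended in 50/50 acetone/water containing 250 ppm Trem 014. Test level 200 ppm (equivalent to 500 g/ha) except where marked * for 40 ppm or ** for 50 ppm.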

Fusarium graminearum = conditions: wheat head scab
Botrytis cinerea = assay: Test F: tomato Botrytis, preventive spray on tomato seedlings, disease rating
Outline: as §2

[1] = test system: Erysiphe graminis f. sp. tritici; assay: Test A: wheat powdery mildew, preventive spray on wheat seedlings, disease rating
Outline: as §1

[2] = test system: Puccinia recondita f. sp. tritici; assay: Test B: wheat leaf rust, preventive spray on wheat seedlings, disease rating
Outline: as §1

[3] = 40 ppm (*), 100 = 100% disease control, 0 = no control relative to controls
[4] = 200 ppm, 100 = 100% disease control, 0 = no control relative to controls

Structure (SMILES)	Percentage Disease Control, Test D (Septoria tritici; 40 ppm (*))	Percentage Disease Control, Test C (Septoria nodorum; 200 ppm) [%]	Percentage Disease Control, Test H (Alternaria solani; 40 ppm (*))	Percentage Disease Control, Test E (Fusarium graminearum; 40 ppm (*))	Percentage Disease Control, Test F (Botrytis cinerea; 200 ppm) [%]	Percentage Disease Control, Test B ([2]; 40 ppm (*))	Percentage Disease Control, Test H (Alternaria solani; 200 ppm) [%]	Percentage Disease Control, Test A ([1]; 40 ppm (*))	Percentage Disease Control, Test C (Septoria nodorum; 40 ppm (*))	also measured
COC(=O)NCc1cc(-c2ccn(-c3cccc(C)n3)n2)ccc1Cl [Cmpd 49]	100* %	99	99* %	99* %	0	100* %				Percentage Disease Control, Test A ([1]; 200 ppm): 79%
COC(=O)NCc1cc(-c2cc(C(F)(F)F)n(CCC[Si](C)(C)C)n2)ccc1Cl [Cmpd 45]	99* %	100			0	100* %	0	99* %		Percentage Disease Control, Test E (Fusarium graminearum; 200 ppm): 26%
CC[Si](C)(C)CON=C(C)c1ccc(Cl)c(CNC(=O)OC)c1 [Compound 7]	100* %			0* %		100* %		100* %	99* %	
COC(=O)NCc1cc(-c2ccn(-c3cccc(C(F)(F)F)c3)n2)ccc1Cl [Cmpd 50]	100* %			97* %	0	99* %	55	100* %	100* %	
C#CCCCn1nc(-c2ccc(Cl)c(CNC(=O)OC)c2)cc1C [Cmpd 39]	100* %			91* %	0	100* %	0	99* %	99* %	
COC(=O)NCc1cc(-c2ccn(CCCF)n2)ccc1Cl [Cmpd 43]		95			0		0			Percentage Disease Control, Test D (Septoria tritici; 200 ppm): 93%; Percentage Disease Control, Test E (Fusarium graminearum; 200 ppm): 94%; Percentage Disease Control, Test A ([1]; 200 ppm): 91%; Percentage Disease Control, Test B ([2]; 200 ppm): 99%
COC(=O)NCc1cc(-c2ccn(Cc3ccccc3Cl)n2)ccc1Cl [Cmpd 37]	100* %			99* %	0	100* %	0	99* %	100* %	
COC(=O)NCc1cc(-c2nn(CCC[Si](C)(C)C)cc2Cl)ccc1Cl [Cmpd 47]	99* %				0	100* %	66	98* %	100* %	Percentage Disease Control, Test E (Fusarium graminearum; 200 ppm): 94%
CCCCn1ccc(-c2ccc(Cl)c(CNC(=O)OC)c2)n1 [Cmpd 46]	91* %	99		94* %	0	99* %	0	94* %		
COC(=O)NCc1cc(-c2ccn(CCCC(c3ccc(F)cc3)c3ccc(F)cc3)n2)ccc1Cl [Cmpd 36]	97* %				0	99* %	78	93* %	99* %	Percentage Disease Control, Test E (Fusarium graminearum; 200 ppm): 26%
COC(=O)NCc1cc(C(C)=NOC[Si](C)(C)C)ccc1Cl [Compound 6]	100* %			68* %		100* %		99* %	96* %	
COC(=O)NOc1cc(-c2cccc(Cl)c2)ccc1Cl [Cmpd 19]	98* %		63* %	99* %		99* %		99* %	97* %	Percentage Disease Control, Test F (Botrytis cinerea; 40 ppm (*)): 0* %
COC(=O)NCc1cc(-c2ccn(CCCc3ccccc3)n2)ccc1Cl [Cmpd 42]	100* %			100* %	0	100* %	0	98* %	100* %	
COC(=O)NCc1cc(-c2cc(C)n(CCC[Si](C)(C)C)n2)ccc1Cl [Cmpd 40]	100* %		50* %	13* %		100* %		99* %	99* %	Percentage Disease Control, Test F (Botrytis cinerea; 40 ppm (*)): 0* %
COC(=O)NCc1cc(-c2cnn(CCC[Si](C)(C)C)c2)ccc1Cl [Cmpd 126]										Percentage Disease Control, Test D (Septoria tritici; [3]): 97* %; Percentage Disease Control, Test C (Septoria nodorum; [4]): 99%; Percentage Disease Control, Test H (Alternaria solani; [4]): 0%; Percentage Disease Control, Test E (Fusarium graminearum; [4]): 0%; Percentage Disease Control, Test F (Botrytis cinerea; [4]): 0%; Percentage Disease Control, Test A [1, 4]: 95%; Percentage Disease Control, Test B [2, 3]: 98* %
COC(=O)NCc1cc(-c2ccn(CCCC(C)C)n2)ccc1Cl [Cmpd 41]	98* %	100		99* %	0	100* %	0			Percentage Disease Control, Test A ([1]; 200 ppm): 99%
COC(=O)NCc1cc(-c2ccn(S(=O)(=O)N(C)C)n2)ccc1Cl [Cmpd 35]		0			0		0			Percentage Disease Control, Test D (Septoria tritici; 200 ppm): 100%; Percentage Disease Control, Test E (Fusarium graminearum; 200 ppm): 0%; Percentage Disease Control, Test A ([1]; 200 ppm): 76%; Percentage Disease Control, Test B ([2]; 200 ppm): 76%
COC(=O)NCc1cc(-c2ccn(-c3ccc(C)cn3)n2)ccc1Cl [Cmpd 48]	99* %		99* %	94* %		100* %		65* %	99* %	Percentage Disease Control, Test F (Botrytis cinerea; 40 ppm (*)): 0* %
COC(=O)C(=O)c1cc(-c2ccn(-c3cccc(C(F)(F)F)c3)n2)ccc1C [Cmpd 83]		0			0		0			Percentage Disease Control, Test D (Septoria tritici; 200 ppm): 89%; Percentage Disease Control, Test A ([1]; 200 ppm): 19%; Percentage Disease Control, Test B ([2]; 200 ppm): 0%
COC(=O)NCc1cc(-c2ccn(-c3cccc(OC)c3)n2)ccc1Cl [Cmpd 107]	99* %		99* %		89	100* %		100* %	100* %	
COC(=O)NCc1cc(-n2ccc(-c3cccc(Br)c3)n2)ccc1Cl [Cmpd 121]	99* %		90* %		0	98* %		98* %	100* %	
COC(=O)NCc1cc(-c2ccn(-c3nc(-c4ccc(C(F)(F)F)cc4)ns3)n2)ccc1Cl [Cmpd 94]		0			0		0			Percentage Disease Control, Test D (Septoria tritici; 200 ppm): 40%; Percentage Disease Control, Test A ([1]; 200 ppm): 0%; Percentage Disease Control, Test B ([2]; 200 ppm): 17%
COC(=O)NCc1cc(-c2ccn(-c3ccc(Cl)c(C(F)(F)F)c3)n2)ccc1Cl [Cmpd 88]	100* %		0* %			97* %		95* %	100* %	Percentage Disease Control, Test F (Botrytis cinerea; 40 ppm (*)): 0* %
COC(=O)NCc1cc(-c2ccn(Cc3ccc(C)cc3)n2)ccc1Cl [Cmpd 72]	100* %		94* %			99* %		99* %	100* %	Percentage Disease Control, Test F (Botrytis cinerea; 40 ppm (*)): 97* %
